Measured values from patent publication US11053204B2, “Pyrimidinyloxy benzene derivatives as herbicides” (FMC Corporation, priority 2015, dated 2021).

How the values were obtained:
Test in all cases: Test C postemergence, plant response rating
Assay type in all cases: in vivo
[1] = system: barnyardgrass (Echinochloa crus-galli); details: for Plant response rating, Barnyardgrass: scale 0 to 100; for Barnyardgrass plant response rating: scale 0 to 100 (0 no effect, 100 complete control)
Excerpt: (§1) Seeds of plant species selected from blackgrass (Alopecurus myosuroides), ryegrass, Italian (Italian ryegrass, Lolium multiflorum), wheat (winter wheat, Triticum aestivum), galium (catchweed bedstraw, Galium aparine), corn (Zea mays), crabgrass, large (large crabgrass, Digitaria sanguinalis), foxtail, giant (giant foxtail, Setaria faberii), johnsongrass (Sorghum halepense), lambsquarters (Chenopodium album), morningglory (Ipomoea coccinea), nutsedge, yellow (yellow nutsedge, Cyperus esculentus), pigweed (Amaranthus retroflexus), ragweed (common ragweed, Ambrosia elatior), soybean (Glycine max), barnyardgrass (Echinochloa crus-galli), oilseed rape (Brassica napus), pigweed, palmer (palmer pigweed, Amaranthus palmeri), waterhemp (common waterhemp, Amaranthus rudis), velvetleaf (Abutilon theophrasti), kochia (Kochia scoparia), surinam grass (Brachiaria decumbens), nightshade (eastern black nightshade, Solanum ptycanthum), wild poinsettia (Euphorbia heterophylla), windgrass (Apera spica-venti), and oat, wild (wild oat Avena fatua), were planted into a blend of loam soil and sand or a silt loam soil and treated preemergence with test chemicals formulated in a non-phytotoxic solvent mixture which included a surfactant.
(§2) At the same time, plants selected from these crop and weed species and also chickweed (common chickweed, Stellaria media), buckwheat, wild (wild buckwheat, Polygonum convolvulus), wild mustard (Sinapis arvensis), field poppy (Papaver rhoeas), field violet (Viola arvensis), geranium, cutleaf (cutleaf geranium, Geranium dissectum), Canada thistle (Cirsium arvense), and speedwell (bird's-eye speedwell, Veronica persica), were planted in pots containing Sunshine Redi-Earth® planting medium comprising spaghnum peat moss, vermiculite, starter nutrients and dolomitic limestone and treated with postemergence applications of test chemicals formulated in the same manner. Plants ranged in height from 2 to 18 cm (1- to 4-leaf stage) for postemergence treatments. Treated plants and controls were maintained in a greenhouse for 13 to 15 d, after which time all species were compared to controls and visually evaluated. Plant response ratings, summarized in Table C, are based on a scale of 0 to 100 where 0 is no effect and 100 is complete control. A dash (-) response means no test result.

[2] = system: blackgrass (Alopecurus myosuroides); details: for Plant response rating, Blackgrass: scale 0 to 100; for Blackgrass plant response rating: scale 0 to 100 (0 no effect, 100 complete control)
Excerpt: as §1, §2

[3] = system: morningglory (Ipomoea coccinea); details: for Morningglory plant response rating: scale 0 to 100 (0 no effect, 100 complete control)
Excerpt: as §1, §2

[4] = system: wheat (winter wheat, Triticum aestivum); details: for Wheat plant response rating: 125 g ai/ha, scale 0 to 100 (0 no effect, 100 complete control)
Excerpt: as §1, §2

[5] = system: oilseed rape (Brassica napus); details: for Oilseed Rape plant response rating: scale 0 to 100 (0 no effect, 100 complete control)
Excerpt: as §1, §2

[6] = system: foxtail, giant (giant foxtail, Setaria faberii); details: for Foxtail, Giant plant response rating: scale 0 to 100 (0 no effect, 100 complete control)
Excerpt: as §1, §2

[7] = system: velvetleaf (Abutilon theophrasti); details: for Velvetleaf plant response rating: 125 g ai/ha, scale 0 to 100 (0 no effect, 100 complete control)
Excerpt: as §1, §2

SMILES | Plant response rating, Barnyardgrass ([1]; 16 g ai/ha) | Plant response rating, Barnyardgrass ([1]; 31 g ai/ha) | Barnyardgrass plant response rating ([1]; 62 g ai/ha) | Barnyardgrass plant response rating ([1]; 125 g ai/ha) | Plant response rating, Blackgrass ([2]; 16 g ai/ha) | Plant response rating, Blackgrass ([2]; 31 g ai/ha) | Blackgrass plant response rating ([2]; 62 g ai/ha) | Blackgrass plant response rating ([2]; 125 g ai/ha) | Plant response rating, Morningglory ([3]; 16 g ai/ha, scale of 0 to 100) | Plant response rating, Morningglory ([3]; 31 g ai/ha, scale 0 to 100) | Morningglory plant response rating ([3]; 62 g ai/ha) | Morningglory plant response rating ([3]; 125 g ai/ha) | Plant response rating, Wheat ([4]; 16 g ai/ha, scale of 0 to 100) | Plant response rating, Wheat ([4]; 31 g ai/ha, scale 0 to 100) | Wheat plant response rating [4] | Plant response rating, Oilseed Rape ([5]; 16 g ai/ha, scale of 0 to 100) | Plant response rating, Oilseed Rape ([5]; 31 g ai/ha, scale 0 to 100) | Oilseed Rape plant response rating ([5]; 62 g ai/ha) | Oilseed Rape plant response rating ([5]; 125 g ai/ha) | Plant response rating, Foxtail, Giant ([6]; 16 g ai/ha, scale of 0 to 100) | further results
O=C(CCC(F)(F)C(F)(F)F)c1c(Br)cccc1Oc1ncc(Cl)cn1 [Compound 110] | 10 | 10 | 20 | 30 | 10 | 15 | 20 | 25 | 30 | 50 | 60 | 50 | 5 | 5 | 15 | 60 | 60 | 85 | 95 | 10 | Plant response rating, Foxtail, Giant ([6]; 31 g ai/ha, scale 0 to 100): 10; Foxtail, Giant plant response rating ([6]; 62 g ai/ha): 25; Foxtail, Giant plant response rating ([6]; 125 g ai/ha): 25; Plant response rating, Velvetleaf ([7]; 16 g ai/ha, scale of 0 to 100): 50; Plant response rating, Velvetleaf ([7]; 31 g ai/ha, scale 0 to 100): 40; Velvetleaf plant response rating [7]: 75
FC(F)(F)CCCCc1c(Cl)cccc1Oc1ncc(Cl)cn1 [Compound 137] | 10 | 10 | 20 | 40 | 5 | 10 | 15 | 40 | 10 | 15 | 20 | 20 | 5 | 5 | 20 | 90 | 95 | 90 | 100 | 20 | Plant response rating, Foxtail, Giant ([6]; 31 g ai/ha, scale 0 to 100): 20; Foxtail, Giant plant response rating ([6]; 62 g ai/ha): 40; Foxtail, Giant plant response rating ([6]; 125 g ai/ha): 35; Plant response rating, Velvetleaf ([7]; 16 g ai/ha, scale of 0 to 100): 10; Plant response rating, Velvetleaf ([7]; 31 g ai/ha, scale 0 to 100): 15; Velvetleaf plant response rating [7]: 70
